Test results as given in patent US4740601A, “Imidazole derivatives having antimicrobial activities” (SS Pharmaceutical Co., Ltd., priority 1985, dated 1988).
Where two headings read alike, the source gives them in different places.

Tests used:
Format in all cases: cell-based
[1] = tested on: Microsporum gypseum IFO 8231; assay: antimicrobial activity, MIC
[2] = tested on: Aspergillus niger ATCC 9642; assay: antimicrobial activity, MIC
[3] = tested on: Trichophyton mentagrophytes QM 248; assay: antimicrobial activity, MIC
[4] = tested on: Helminthosporium sesamum IAM 5012; assay: antimicrobial activity, MIC
[5] = tested on: Penicillium chrysogenum ATCC 6010; assay: antimicrobial activity, MIC
[6] = tested on: Cladosporium fulvum IAM 5006; assay: antimicrobial activity, MIC
[7] = tested on: Micrococcus lysodeixticus IFO 3333; assay: antimicrobial activity, MIC
[8] = tested on: Bacillus subtilis ATCC 6633; assay: antimicrobial activity, MIC
[9] = tested on: Candida albicans Yu-1200; assay: antimicrobial activity, MIC
[10] = tested on: Fusarium moniliforme IAM 5062; assay: antimicrobial activity, MIC
[11] = tested on: Microsporum audounii IFO 6074; assay: antimicrobial activity, MIC
[12] = tested on: Gibberella fujikuroi IAM 8046; assay: antimicrobial activity, MIC
[13] = tested on: Staphylococcus aureus FDA 209P; assay: antimicrobial activity, MIC
[14] = tested on: Staphylococcus aureus Smith; assay: antimicrobial activity, MIC
[15] = tested on: Pyricularia oryzae IAM 5016; assay: microbe, parasite or virus in culture
[16] = tested on: Candida albicans NHL 4019; assay: antimicrobial activity, MIC
[17] = tested on: Trichophyton tonsurans IFO 5928; assay: antimicrobial activity, MIC
[18] = tested on: Epidermophyton floccosum IFO 9045; assay: antimicrobial activity, MIC
[19] = tested on: Microsporum cookei IFO 8303; assay: antimicrobial activity, MIC
[20] = tested on: Staphylococcus aureus Terajima; assay: antimicrobial activity, MIC
[21] = tested on: Saccharomyces ruxii 6507; assay: antimicrobial activity, MIC
[22] = tested on: Saccharomyces cerevisiae ATCC 9763; assay: antimicrobial activity, MIC
[23] = tested on: Staphylococcus epidermidis ATCC 12228; assay: antimicrobial activity, MIC
[24] = tested on: Aspergillus oryzae IMF 4014; assay: antimicrobial activity, MIC
[25] = tested on: Sarcina lutea ATCC 9341; assay: antimicrobial activity, MIC
[26] = tested on: Streptococcus faecalis IFO 12964; assay: antimicrobial activity, MIC
[27] = tested on: Trichophyton rubrum NHL J; assay: antimicrobial activity, MIC
[28] = tested on: Trichophyton mentagrophytes IFO 5812; assay: antimicrobial activity, MIC
[29] = tested on: Debaryomyces kloeckeri IFO 0015; assay: antimicrobial activity, MIC
[30] = Nannizzia gypsea, IFO8231, Microsporum gypseum IFO 8231, read-out: MIC
[31] = Aspergillus niger, ATCC9642, Aspergillus niger ATCC 9642, read-out: MIC
[32] = Trichophyton mentagrophytes, QM248, Trichophyton mentagrophytes QM 248, read-out: MIC
[33] = Helminthosporium, IAM5012, Helminthosporium sesamum IAM 5012, read-out: MIC
[34] = Penicillium chrysogenum, ATCC6010, Penicillium chrysogenum ATCC 6010, read-out: MIC
[35] = Fulvia fulva, IAM5006, Cladosporium fulvum IAM 5006, read-out: MIC
[36] = Micrococcus, IFO3333, Micrococcus lysodeixticus IFO 3333, read-out: MIC
[37] = Bacillus subtilis, ATCC6633, Bacillus subtilis ATCC 6633, read-out: MIC
[38] = Fusarium verticillioides, IAM5062, Fusarium moniliforme IAM 5062, read-out: MIC
[39] = Microsporum, IFO6074, Microsporum audounii IFO 6074, read-out: MIC
[40] = Fusarium fujikuroi, IAM8046, Gibberella fujikuroi IAM 8046, read-out: MIC
[41] = Staphylococcus aureus, FDA209P, read-out: MIC
[42] = Staphylococcus aureus, read-out: MIC
[43] = Pyricularia oryzae, IAM5016, Pyricularia oryzae IAM 5016
[44] = Candida albicans, NHL4019, Candida albicans NHL 4019, read-out: MIC
[45] = Trichophyton tonsurans, IFO5928, Trichophyton tonsurans IFO 5928, read-out: MIC
[46] = Epidermophyton floccosum, IFO9045, Epidermophyton floccosum IFO 9045, read-out: MIC
[47] = Paraphyton cookei, IFO8303, Microsporum cookei IFO 8303, read-out: MIC
[48] = Saccharomyces ruxii 6507, read-out: MIC
[49] = Saccharomyces cerevisiae, ATCC9763, Saccharomyces cerevisiae ATCC 9763, read-out: MIC
[50] = Staphylococcus epidermidis, ATCC12228, Staphylococcus epidermidis ATCC 12228, read-out: MIC
[51] = Aspergillus oryzae, IMF4014, Aspergillus oryzae IMF 4014, read-out: MIC
[52] = Micrococcus luteus, ATCC9341, Sarcina lutea ATCC 9341, read-out: MIC
[53] = Enterococcus faecalis, IFO12964, Streptococcus faecalis IFO 12964, read-out: MIC
[54] = Trichophyton rubrum, Trichophyton rubrum NHL J, read-out: MIC
[55] = Trichophyton mentagrophytes, IFO5812, Trichophyton mentagrophytes IFO 5812, read-out: MIC
[56] = Trichophyton mentagrophytes QM 248
[57] = Helminthosporium sesamum IAM 5012
[58] = Penicillium chrysogenum ATCC 6010
[59] = Trichophyton tonsurans IFO 5928
[60] = Epidermophyton floccosum IFO 9045
[61] = Saccharomyces, 6507, Saccharomyces ruxii 6507
[62] = Trichophyton mentagrophytes IFO 5812

Measured: MIC

CCCCCSC=C(c1ccccc1OCC)n1ccnc1 (single isomer, unassigned) [Compound 49]
12.5 µg/mL: [13]; [41] | [14]; [42] | [29]; IFO0015, read-out: MIC
1.56 µg/mL: [7]; [36] | [10]; [38] | [19]; [47]
25 µg/mL: [6]; [35] | [9]; YU1200, read-out: MIC | [16]; [44]
< 0.2 µg/mL: [1]; [30] | [2]; [31] | [3]; [32] | [11]; [39] | [15]; [43] | [17]; [45] | [21]; [48] | [27]; [54] | [28]; [55]
6.25 µg/mL: [5]; [34] | [20]; [42] | [26]; [53]
50 µg/mL: [22]; [49]
3.12 µg/mL: [8]; [37] | [23]; [50] | [25]; [52]
0.78 µg/mL: [18]; [46] | [24]; [51]
0.39 µg/mL: [4]; [33] | [12]; [40]

CCCOc1ccccc1C(=CSc1ccccc1)n1ccnc1 (single isomer, unassigned) [Compound 64]
0.78 µg/mL: [3]; [56]
> 100 µg/mL: [6]; [35] | [9]; YU1200, read-out: MIC | [16]; [44] | [29]; IFO0015, read-out: MIC
3.12 µg/mL: [17]; [59]
< 0.2 µg/mL: [11]; Microsporum audounii IFO 6074 | [15]; Pyricularia oryzae IAM 5016 | [27]; Trichophyton rubrum NHL J | [28]; [62]
1.56 µg/mL: [7]; Micrococcus, IFO3333 | [21]; [61]
6.25 µg/mL: [1]; [30] | [4]; [57] | [8]; Bacillus subtilis ATCC 6633 | [18]; [60] | [20]; [42] | [23]; [50] | [24]; Aspergillus oryzae IMF 4014 | [25]; Sarcina lutea ATCC 9341
12.5 µg/mL: [2]; Aspergillus niger ATCC 9642 | [5]; [58] | [14]; [42] | [19]; Microsporum cookei IFO 8303
25 µg/mL: [12]; Gibberella fujikuroi IAM 8046 | [13]; [41] | [26]; [53]
50 µg/mL: [10]; [38] | [22]; [49]

CCCOc1ccccc1C(=CSc1ccccc1)n1ccnc1 (single isomer, unassigned) [Compound 65]
25 µg/mL: [22]; Saccharomyces cerevisiae ATCC 9763
3.12 µg/mL: [8]; Bacillus subtilis ATCC 6633 | [25]; Sarcina lutea ATCC 9341 | [27]; Trichophyton rubrum NHL J | [28]; [62]
100 µg/mL: [4]; [57] | [18]; [60] | [19]; Microsporum cookei IFO 8303
6.25 µg/mL: [11]; Microsporum audounii IFO 6074 | [14] | [20] | [21]; [48] | [23]; Staphylococcus epidermidis ATCC 12228
1.56 µg/mL: [7]; Micrococcus lysodeixticus IFO 3333 | [15]; Pyricularia oryzae IAM 5016
12.5 µg/mL: [1]; Microsporum gypseum IFO 8231 | [3]; [56] | [13] | [17]; [59] | [26]; Streptococcus faecalis IFO 12964
> 100 µg/mL: [2]; Aspergillus niger ATCC 9642 | [5]; [58] | [6]; Cladosporium fulvum IAM 5006 | [9] | [10]; Fusarium moniliforme IAM 5062 | [12]; Gibberella fujikuroi IAM 8046 | [16]; Candida albicans NHL 4019 | [24]; Aspergillus oryzae IMF 4014 | [29]

CCCCCCOc1ccccc1C(=COC)n1ccnc1 (single isomer, unassigned) [Compound 73]
50 µg/mL: [9]; YU1200, read-out: MIC | [16]; [44] | [22]; [49]
6.25 µg/mL: [4]; [33] | [5]; [34] | [6]; [35] | [8]; [37] | [12]; [40] | [18]; [46] | [19]; [47] | [20]; [42] | [23]; [50] | [24]; [51] | [25]; [52]
3.12 µg/mL: [1]; [30] | [3]; [32] | [7]; [36] | [17]; [45] | [29]; IFO0015, read-out: MIC
0.78 µg/mL: [11]; [39]
1.56 µg/mL: [15]; [43] | [21]; [61] | [27]; Trichophyton rubrum | [28]; [62]
12.5 µg/mL: [2]; [31] | [10]; [38] | [13]; [41] | [14]; [42] | [26]; [53]

CCCCCCOc1ccccc1C(=CCl)n1ccnc1 (single isomer, unassigned) [Compound 83]
50 µg/mL: [16]; [44]
< 0.2 µg/mL: [3]; [32] | [11]; [39] | [15]; [43] | [17]; [45] | [21]; [48] | [27]; [54] | [28]; [55]
12.5 µg/mL: [2]; [31] | [6]; [35] | [9]; YU1200, read-out: MIC | [13]; [41] | [14]; [42] | [24]; [51] | [26]; [53]
6.25 µg/mL: [4]; [33] | [8]; [37] | [18]; [46] | [19]; [47] | [20]; [42] | [23]; [50] | [29]; IFO0015, read-out: MIC
25 µg/mL: [5]; [34] | [10]; [38] | [12]; [40] | [22]; [49]
3.12 µg/mL: [25]; [52]
1.56 µg/mL: [1]; [30] | [7]; [36]

CCOc1ccccc1C(=CSCc1ccccc1)n1ccnc1 [Compound 7]
1.56 µg/mL: [1]; [30]
0.39 µg/mL: [4]; [33]
12.5 µg/mL: [2]; [31] | [14]; [42] | [19]; [47] | [25]; [52]
50 µg/mL: [5]; [34] | [13]; [41] | [26]; [53]
0.78 µg/mL: [21]; [48] | [28]; [55]
3.12 µg/mL: [3]; [32]
100 µg/mL: [6]; [35] | [16]; [44]
25 µg/mL: [8]; [37] | [20]; [42] | [23]; [50] | [29]; IFO0015, read-out: MIC
6.25 µg/mL: [7]; [36] | [10]; [38] | [12]; [40] | [18]; [46] | [24]; [51]
> 100 µg/mL: [9]; YU1200, read-out: MIC
< 0.2 µg/mL: [11]; [39] | [15]; [43] | [17]; [45] | [22]; [49] | [27]; [54]

CCCCOc1ccccc1C(=C(Br)Br)n1ccnc1 [Compound 93]
> 100 µg/mL: [2]; [31] | [5]; [34] | [6]; [35] | [9]; YU1200, read-out: MIC | [10]; [38] | [12]; [40] | [24]; [51]
50 µg/mL: [4]; [33] | [26]; [53]
6.25 µg/mL: [1]; [30] | [7]; [36] | [29]; IFO0015, read-out: MIC
1.56 µg/mL: [3]; [32] | [17]; [45]
12.5 µg/mL: [8]; [37] | [19]; [47]
0.39 µg/mL: [15]; [43] | [27]; [54]
25 µg/mL: [13]; [41] | [14]; [42] | [18]; [46] | [20]; [42] | [23]; [50] | [25]; [52]
< 0.2 µg/mL: [11]; [39] | [21]; [48] | [22]; [49] | [28]; [55]
100 µg/mL: [16]; [44]
